Experimental data published in US8815918B2, “Imidazo [2, 1-B] [1, 3, 4] thiadiazole derivatives” (Centro Nacional de Investigaciones Oncologicas (CNIO), priority 2009, dated 2014).
Where two headings read alike, the source gives them in different places.

Target: PI3K (p110α/p85α) (Homo sapiens (Human), UniProt P42336)
Assay: PI3K Activity Assay (ADP Hunter Plus)
Assay type: biochemical
Settings: for inhibition at 10 µM: 10 μM compound concentration, read-out: Inhibition (%) of PI3Kα activity, Inh (%) at 10 μM
Description: The kinase activity was measured by using the commercial ADP Hunter™ Plus assay available from DiscoveRx (#33-016), which is a homogeneous assay to measure the accumulation of ADP, a universal product of kinase activity. The enzyme, PI3K (p110α/p85α was purchased from Carna Biosciences (#07CBS-0402A). The assay was done following the manufacturer recommendations with slight modifications: Mainly the kinase buffer was replace by 50 mM HEPES, pH 7.5, 3 mM MgCl2, 100 mM NaCl, 1 mM EGTA, 0.04% CHAPS, 2 mM TCEP and 0.01 mg/ml BGG. The PI3K was assayed in a titration experiment to determine the optimal protein concentration for the inhibition assay. To calculate the IC50 of the ETP-compounds, serial 1:5 dilutions of the compounds were added to the enzyme at a fixed concentration (2.5 μg/mL. The enzyme was preincubated with the inhibitor and 30 μM PIP2 substrate (P9763, Sigma) for 5 min and then ATP was added to a final 50 μM concentration. Reaction was carried out for 1 hour at 25° C. Reagent A and B were sequentially added to the wells and plates were incubated for 30 min at 37° C. Fluorescence counts were read in a Victor instrument (Perkin Elmer) with the recommended settings (544 and 580 nm as excitation and emission wavelengths, respectively). Values were normalized against the control activity included for each enzyme (i.e., 100% PI3 kinase activity, without compound). These values were plot against the inhibitor concentration and were fit to a sigmoid dose-response curve by using the Graphad software.

[1] = read-out: Biological activity in PI3Kα, semi-quantitative

PI3K (p110α/p85α), sequence (P42336 whole entry): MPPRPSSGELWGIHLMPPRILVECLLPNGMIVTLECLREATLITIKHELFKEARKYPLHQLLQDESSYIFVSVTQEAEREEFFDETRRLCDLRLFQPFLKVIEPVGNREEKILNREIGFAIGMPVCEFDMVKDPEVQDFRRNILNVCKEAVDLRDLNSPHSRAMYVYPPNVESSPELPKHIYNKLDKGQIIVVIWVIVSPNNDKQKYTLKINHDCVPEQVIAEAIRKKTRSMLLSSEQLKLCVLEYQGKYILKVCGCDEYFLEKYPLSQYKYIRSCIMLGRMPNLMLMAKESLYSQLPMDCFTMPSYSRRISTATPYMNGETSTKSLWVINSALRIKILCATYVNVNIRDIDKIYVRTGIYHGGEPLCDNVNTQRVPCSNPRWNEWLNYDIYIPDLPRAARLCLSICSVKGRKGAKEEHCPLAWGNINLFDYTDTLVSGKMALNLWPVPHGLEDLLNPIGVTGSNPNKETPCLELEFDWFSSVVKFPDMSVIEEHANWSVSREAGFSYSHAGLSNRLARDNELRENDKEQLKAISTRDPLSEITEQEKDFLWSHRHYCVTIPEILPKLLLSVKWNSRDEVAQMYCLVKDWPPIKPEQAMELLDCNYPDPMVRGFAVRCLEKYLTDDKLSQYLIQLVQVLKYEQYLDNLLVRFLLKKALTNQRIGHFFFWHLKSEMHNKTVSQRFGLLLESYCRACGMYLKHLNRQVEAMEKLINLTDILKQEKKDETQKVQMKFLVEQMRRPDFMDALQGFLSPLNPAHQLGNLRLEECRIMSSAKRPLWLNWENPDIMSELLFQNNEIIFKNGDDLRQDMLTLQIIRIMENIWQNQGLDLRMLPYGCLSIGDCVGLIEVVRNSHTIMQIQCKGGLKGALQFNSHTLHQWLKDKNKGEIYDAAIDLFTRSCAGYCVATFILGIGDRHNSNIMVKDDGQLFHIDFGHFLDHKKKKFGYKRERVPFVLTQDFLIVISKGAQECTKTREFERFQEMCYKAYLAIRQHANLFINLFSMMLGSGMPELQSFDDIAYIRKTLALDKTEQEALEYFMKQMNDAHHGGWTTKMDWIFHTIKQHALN
PI3K (p110α/p85α), sequence (P27986 whole entry partner): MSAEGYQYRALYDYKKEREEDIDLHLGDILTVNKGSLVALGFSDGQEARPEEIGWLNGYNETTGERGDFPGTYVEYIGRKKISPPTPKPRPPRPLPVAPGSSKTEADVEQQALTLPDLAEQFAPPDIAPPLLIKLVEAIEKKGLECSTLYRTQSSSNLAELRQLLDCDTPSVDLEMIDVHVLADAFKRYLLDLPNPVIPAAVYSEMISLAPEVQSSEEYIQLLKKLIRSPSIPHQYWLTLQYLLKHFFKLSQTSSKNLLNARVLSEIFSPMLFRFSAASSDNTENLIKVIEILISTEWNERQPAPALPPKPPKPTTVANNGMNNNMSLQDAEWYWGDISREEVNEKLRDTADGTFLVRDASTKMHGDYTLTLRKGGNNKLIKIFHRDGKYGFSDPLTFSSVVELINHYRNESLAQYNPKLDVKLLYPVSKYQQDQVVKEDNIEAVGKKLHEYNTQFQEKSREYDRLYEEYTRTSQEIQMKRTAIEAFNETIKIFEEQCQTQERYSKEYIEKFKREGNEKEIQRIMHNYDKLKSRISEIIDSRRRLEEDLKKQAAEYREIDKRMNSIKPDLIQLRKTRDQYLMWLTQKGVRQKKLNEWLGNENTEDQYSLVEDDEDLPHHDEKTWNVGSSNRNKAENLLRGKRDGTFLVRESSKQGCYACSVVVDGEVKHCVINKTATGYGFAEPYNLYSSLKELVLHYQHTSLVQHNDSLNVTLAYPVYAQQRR

Row | inhibition at 10 µM [%] | IC50 [1] [µM] | IC50 (read-out: IC50 [μM] PI3Kα) [µM] | SMILES
1 | 68 | 0.1 to 1 | – | COc1ccc(-c2nn3c(-c4ccc(S(C)(=O)=O)c(F)c4)c(C)nc3s2)cc1OC [Example 1, 2-(3,4-Dimethoxy-phenyl)-5-(3-fluoro-4-methanesulfonyl-phenyl) -6-methyl-imidazo[2,1-b][1,3,4]thiadiazole]
2 | 100 | 0.1 to 1 | – | COc1ccc(-c2nn3c(-c4ccc(C#N)nc4)c(C)nc3s2)cc1OC [Example 2, 5-[2-(3,4-Dimethoxy-phenyl)-6-methyl-imidazo[2,1-b][1,3,4]thiadiazol-5-yl]-pyridine-2-carbonitrile]
3 | 97 | < 0.1 | – | COc1ccc(-c2nn3c(-c4cnc(N)c(C(F)(F)F)c4)c(C)nc3s2)cc1OC [Example 3, 5-[2-(3,4-Dimethoxy-phenyl)-6-methyl-imidazo[2,1-b][1,3,4]thiadiazol-5-yl]-3-trifluoromethyl-pyridin-2-ylamine]
4 | 81 | 1 to 50 | – | COc1ccc(-c2nn3c(-c4cccnc4)c(C)nc3s2)cc1OC [Example 4, 2-(3,4-Dimethoxy-phenyl)-6-methyl-5-pyridin-3-yl-imidazo[2,1-b][1,3,4]thiadiazole]
5 | 70 | 1 to 50 | 2.88 | COc1ccc(-c2c(C)nc3sc(-c4ccc(OC)c(OC)c4)nn23)cn1 [Example 5, 2-(3,4-Dimethoxy-phenyl)-5-(6-methoxy-pyridin-3-yl)-6-methyl-imidazo[2,1-b][1,3,4]thiadiazole]
6 | 85 | 0.1 to 1 | – | COc1ccc(-c2nn3c(-c4ccc(OC)c(OC)c4)c(C)nc3s2)cc1OC [Example 6, 2,5-Bis-(3,4-dimethoxy-phenyl)-6-methyl-imidazo[2,1-b][1,3,4]thiadiazole]
7 | 100 | 0.1 to 1 | – | COc1ccc(-c2nn3c(-c4cnc(N)nc4)c(C)nc3s2)cc1OC [Example 7, 5-[2-(3,4-Dimethoxy-phenyl)-6-methyl-imidazo[2,1-b][1,3,4]thiadiazol-5-yl]-pyrimidin-2-ylamine]
8 | – | 1 to 50 | – | COc1ccc(-c2nn3c(-c4ccc(O)nc4)c(C)nc3s2)cc1OC [Example 8, 5-[2-(3,4-Dimethoxy-phenyl)-6-methyl-imidazo[2,1-b][1,3,4]thiadiazol-5-yl]-pyridin-2-ol]
9 | 77 | 1 to 50 | – | COc1cc(-c2nn3c(-c4cnc(N)c(C(F)(F)F)c4)c(C)nc3s2)ccc1OCCNC(=O)OC(C)(C)C [Example 9, tert-Butyl 2-(4-(5-(6-amino-5-(trifluoromethyl)pyridin-3-yl)-6-methylimidazo-[2,1-b][1,3,4]thiadiazol-2-yl)-2-methoxyphenoxy)ethylcarbamate]
10 | – | 1 to 50 | – | COc1cc(-c2nn3c(-c4cnc(N)c(C(F)(F)F)c4)c(C)nc3s2)ccc1OCC(=O)N(C)C [Example 10, 2-(4-(5-(6-amino-5-(trifluoromethyl)pyridin-3-yl)-6-methylimidazo[2,1-b][1,3,4]thiadiazol-2-yl)-2-methoxyphenoxy)-N,N-dimethylacetamide]
11 | 83 | 1 to 50 | – | COc1cc(-c2nn3c(-c4cnc(N)c(C(F)(F)F)c4)c(C)nc3s2)ccc1OCCN1CCOCC1 [Example 11, 5-(2-(4-(2-morpholinoethoxy)-3-methoxyphenyl)-6-methylimidazo[2,1-b][1,3,4]thiadiazol-5-yl)-3-(trifluoromethyl)pyridin-2-amine]
12 | – | < 0.1 | – | COc1cc(-c2nn3c(-c4cnc(N)c(C(F)(F)F)c4)cnc3s2)ccc1OC1CCNCC1 [Example 12, 5-{2-[3-Methoxy-4-(piperidin-4-yloxy)-phenyl]-imidazo[2,1-b][1,3,4]thiadiazol-5-yl}-3-trifluoromethyl-pyridin-2-ylamine]
13 | – | < 0.1 | 0.033 | COc1ccc(-c2nn3c(-c4cnc(N)c(C#N)c4)cnc3s2)cc1OC [Example 18, 2-Amino-5-[2-(3,4-dimethoxy-phenyl)-imidazo[2,1-b][1,3,4]thiadiazol-5-yl]-nicotinonitrile]
14 | – | 0.1 to 1 | – | COc1cccc(-c2nn3c(-c4cnc(N)c(C(F)(F)F)c4)cnc3s2)c1 [Example 28, 5-[2-(3-Methoxy-phenyl)-imidazo[2,1-b][1,3,4]thiadiazol-5-yl]-3-trifluoromethyl-pyridin-2-ylamine]

Second part, the compound before the results:

Row | SMILES | inhibition at 10 µM [%] | IC50 [1] [µM] | IC50 (read-out: IC50 [μM] PI3Kα) [µM]
15 | COc1ccc(-c2cnc3sc(-c4ccc(OC5CCNCC5)c(OC)c4)nn23)cn1 [Example 13, 2-[3-Methoxy-4-(piperidin-4-yloxy)-phenyl]-5-(6-methoxy-pyridin-3-yl)-imidazo[2,1-b][1,3,4]thiadiazole] | – | 1 to 50 | –
16 | COc1cc(-c2nn3c(-c4cnc(N)nc4)cnc3s2)ccc1OC1CCN(C(=O)OC(C)(C)C)CC1 [Example 14, 4-{4-[5-(2-Amino-pyrimidin-5-yl)-imidazo[2,1-b][1,3,4]thiadiazol-2-yl]-2-methoxy-phenoxy}-piperidine-1-carboxylic acid tert-butyl ester] | – | 1 to 50 | –
17 | COc1cc(-c2nn3c(-c4cnc(N)nc4)cnc3s2)ccc1OC1CCNCC1 [Example 15, 5-{2-[3-Methoxy-4-(piperidin-4-yloxy)-phenyl]-imidazo[2,1-b][1,3,4]thiadiazol-5-yl}-pyrimidin-2-ylamine] | – | 0.1 to 1 | 0.115
18 | COc1ccc(-c2nn3c(-c4ccc(OC)c(OC)c4)cnc3s2)cc1OC [Example 16, 2,5-Bis-(3,4-dimethoxy-phenyl)-imidazo[2,1-b][1,3,4]thiadiazole] | 97 | < 0.1 | –
19 | COc1ccc(-c2nn3c(-c4ccc(C#N)nc4)cnc3s2)cc1OC [Example 17, 5-[2-(3,4-Dimethoxy-phenyl)-imidazo[2,1-b][1,3,4]thiadiazol-5-yl]-pyridine-2-carbonitrile] | 95 | < 0.1 | 0.063
20 | COc1ccc(-c2nn3c(-c4cnc(N5CCN(C(=O)OC(C)(C)C)CC5)nc4)cnc3s2)cc1OC [Example 19, 4-{5-[2-(3,4-Dimethoxy-phenyl)-imidazo[2,1-b][1,3,4]thiadiazol-5-yl]-pyrimidin-2-yl}-piperazine-1-carboxylic acid tert-butyl ester] | – | 1 to 50 | –
21 | COc1ccc(-c2nn3c(-c4cnc(N5CCNCC5)nc4)cnc3s2)cc1OC [Example 20, 2-(3,4-Dimethoxy-phenyl)-5-(2-piperazin-1-yl-pyrimidin-5-yl)-imidazo[2,1-b][1,3,4]thiadiazole] | – | 0.1 to 1 | –
22 | COc1ccc(-c2nn3c(-c4cnc(N5CCN(C)CC5)nc4)cnc3s2)cc1OC [Example 21, 2-(3,4-Dimethoxy-phenyl)-5-[2-(4-methyl-piperazin-1-yl)-pyrimidin-5-yl]-imidazo[2,1-b][1,3,4]thiadiazole] | – | 0.1 to 1 | –
23 | COc1ccc(-c2nn3c(-c4cnc(N5CCNCC5)c(C(F)(F)F)c4)cnc3s2)cc1OC [Example 22, 2-(3,4-Dimethoxy-phenyl)-5-(6-piperazin-1-yl-5-trifluoromethyl-pyridin-3-yl)-imidazo[2,1-b][1,3,4]thiadiazole] | – | 0.1 to 1 | –
24 | COc1ccc(-c2nn3c(-c4cnc(N5CCN(C)CC5)c(C(F)(F)F)c4)cnc3s2)cc1OC [Example 23, 2-(3,4-Dimethoxy-phenyl)-5-[6-(4-methyl-piperazin-1-yl)-5-trifluoromethyl-pyridin-3-yl]-imidazo[2,1-b][1,3,4]thiadiazole] | – | 0.1 to 1 | 0.447
25 | COc1ccc(-c2nn3c(-c4cnc(SC)nc4)cnc3s2)cc1OC [Example 24, 2-(3,4-Dimethoxy-phenyl)-5-(2-methylsulfanyl-pyrimidin-5-yl)-imidazo[2,1-b][1,3,4]thiadiazole] | – | 0.1 to 1 | –
26 | COc1ccc(-c2nn3c(-c4cnc([S+](C)[O-])nc4)cnc3s2)cc1OC (stereo not drawn) [Example 25, 2-(3,4-Dimethoxy-phenyl)-5-(2-mthanesulfinyl-pyrimidin-5-yl) -imidazo[2,1-b][1,3,4]thiadiazole] | – | 0.1 to 1 | –
27 | COc1ccc(-c2nn3c(-c4cnc(NCCN(C)C)nc4)cnc3s2)cc1OC [Example 26, N′-{5-[2-(3,4-Dimethoxy-phenyl)-imidazo[2,1-b][1,3,4]thiadiazol-5-yl]-pyrimidin-2-yl}-N,N-dimethyl-ethane-1,2-diamine] | – | 0.1 to 1 | –
28 | COc1cncc(-c2cnc3sc(-c4ccc(OC)c(OC)c4)nn23)c1 [Example 27, 2-(3,4-dimethoxyphenyl)-5-(5-methoxypyridin-3-yl)imidazo[2,1-b][1,3,4]thiadiazole] | 99 | < 0.1 | –
29 | N#Cc1cccc(-c2nn3c(-c4cnc(N)c(C(F)(F)F)c4)cnc3s2)c1 [Example 29, 3-[5-(6-Amino-5-trifluoromethyl-pyridin-3-yl)-imidazo[2,1-b][1,3,4]thiadiazol-2-yl]-benzonitrile] | – | < 0.1 | –
30 | COc1ccc(-c2nn3c(-c4cnc(N)c(C(F)(F)F)c4)cnc3s2)cc1 [Example 30, 5-[2-(4-Methoxy-phenyl)-imidazo[2,1-b][1,3,4]thiadiazol-5-yl]-3-trifluoromethyl-pyridin-2-ylamine] | – | 0.1 to 1 | 0.454
